≈ marks a conversion by molar mass, not a printed value. Like-named read-outs stand apart in the source and are kept apart here. Marks after values point to notes of the source that are not given here.
Assays:
MCF-7 cells = assay: Cytotoxicity to MCF-7 cells with or without 25 μM dicoumarol (sulforhodamine B assay); format: cell-based, human
Description: The NQO1-dependent cytotoxicity of the first set of derivatives was determined in MCF-7 cells which express high levels of NQO1. Cells were exposed to DNQ for 2 hours in the presence or absence of 25 μM DIC. The media was then removed and cells were washed once with media then fresh media was added and the cells were incubated for 72 hours. Cell death was assessed using the sulforhodamine B assay previously described. […] Substitution off the nitrogen appeared well tolerated (4-14 and 4-15).
The DNQ derivatives synthesized were assayed for their toxicity to MCF-7 cells with or without DIC. The data from these experiments is organized in Table 4.2. […] This tolerance of sterically-demanding substituents corresponds with a flexible and promiscuous NQO1 active site. The poor activity of hydroxyl derivative 4-41 may be a result of either poor binding with the largely hydrophobic NQO1 active site or with an excessively strong substrate-enzyme interaction because of hydrogen bonding.

[1] = Aqueous solubility in pH 7.4 PBS by LC-MS; format: physicochemical; details: phosphate buffered saline, pH 7.4, aqueous buffer, thermodynamic from solid, PBS pH 7.4; Table 4.3
Description: The aqueous solubility of DNQ at pH 7.4 in phosphate buffered saline (PBS) was measured by LC-MS. DNQ was sonicated for 30 minutes in PBS then undissolved solid was removed by filtration through a 0.45 μm syringe filter and the filtrate was analyzed by LC-MS (λ=275 nm, ESI-TOF in negative mode). The optimal sonication time was determined by sonicating DNQ for 1, 5, 10, and 30 minutes. While the concentration of DNQ in solution increased substantially between 1, 5, and 10 minutes, there was only a minor difference between 10 and 30 minutes. During the 30 minute sonication the water bath warmed to 45° C. (samples were cooled to room temperature before filtration). A calibration curve was generated from 1-100 μM by dissolving DNQ in methanol to a concentration of 500 μM and making dilutions of this stock in 80:20 water:methanol. The calibration curve (measure by UV absorbance) was linear over this range; 1 μM was approximately the limit of detection. […] The solution was very pale yellow.
The aqueous solubility of the compounds was determined by an LC-MS assay as described in the specification above. We applied the calibration curve generated for DNQ to the derivatives under the assumption that the UV profile of the derivatives of DNQ would be similar to that of DNQ.
After sonication and filtration most of the aqueous solutions were colorless. The solutions of DNQ, 4-31, and 4-37 were faintly yellow while 4-8, 4-14 and 4-41 were substantially more colored. The solution of 4-8, 4-14 and 4-41 were diluted 10-fold with PBS prior to LC-MS analysis to ensure that the concentrations fell within the range of the calibration curve.

[2] = Solubility in organic solvents; format: physicochemical; details: for solubility: organic solvent or mixture, thermodynamic from solid
Description: The solubility of DNQ derivatives in organic solvents was determined by measuring the amount of a given solvent required to dissolve a known amount of compound. Solvent was added to the compound in 50 μL aliquots and the slurry was sonicated. […] Solubility was assessed in DMSO, dichloromethane, and 33% methanol in dichloromethane (FIGS. 9, 10, and 11, respectively).

[3] = Solubility in organic solvents; format: physicochemical; details: organic solvent or mixture, thermodynamic from solid; THF; Table 1
NQO1 = NQO1 (Homo sapiens, UniProt P15559); assay: NQO1 enzymatic measurements in vitro; format: biochemical; details: 1 μM substrate
NQO1, sequence (P15559 whole entry): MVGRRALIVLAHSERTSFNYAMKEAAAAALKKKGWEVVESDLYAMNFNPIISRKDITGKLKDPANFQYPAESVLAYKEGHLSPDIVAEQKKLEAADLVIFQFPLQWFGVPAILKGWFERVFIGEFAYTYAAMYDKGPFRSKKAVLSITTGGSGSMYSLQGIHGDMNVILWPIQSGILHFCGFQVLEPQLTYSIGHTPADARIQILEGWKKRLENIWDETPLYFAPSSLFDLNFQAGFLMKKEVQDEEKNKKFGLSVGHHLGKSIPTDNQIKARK
Description: As further evidence that the activity of these DNQ derivatives is dependent on their ability to be reduced by NQO1, full enzymatic measurements in vitro were performed. We found a strong correlation between catalytic efficiency of substrates in vitro and their cell culture toxicity. […] This provides strong evidence that the cytotoxicity of DNQ and its derivatives are dependent primarily upon the activity of NQO1 within the cell.

[4] = Solubility in 20% HPβCD solution (pH modulation protocol); format: physicochemical; details: 20% HPβCD in pH 7.4 PBS, pH 7.4, aqueous with cosolvent or surfactant or cyclodextrin, thermodynamic from solid; 20% HPβCD; Table 4.3
Description: The protocol for formulating DNQ compounds in HPβCD is as follows: the DNQ compound is slurried in a 20% solution of HPβCD in pH 7.4 PBS and the pH is then increased by the addition of 10 M NaOH to induce dissolution of the DNQ compound. The pH is returned to pH 7.5-8.0 by the careful addition of 1 M HCl. A 3.3 mM solution of the DNQ compound can be made by this method which is stable at least 24 hours. This represents a 30-fold increase in solubility of DNQ over PBS alone.
Although we were pleased to find active derivatives of DNQ that were up to 4-fold more soluble in water—sufficiently soluble for continuous IV infusion for human administration—this level of solubility was insufficient for animal studies by bolus injection. […] We used the same pH modulation protocol outlined for DNQ described in the specification above. The results are organized in Table 4.3 and FIG. 8. While all compounds were more soluble in HPβCD than in buffer alone, the fold increase in solubility varied widely.

[5] = Homo sapiens, MCF7, 2 h, Table 4.1, 2 h exposure, no DIC, ± s.e., read-out: IC50 vs. MCF-7 cells
[6] = Homo sapiens, MCF7, classification in figure legends of FIGS. 7-11, read-out: IC50 ("active" / generally "inactive" compounds)
[7] = Homo sapiens, MCF7, read-out: IC50 vs. MCF-7 cells +25 μM DIC, Table 4.1, +25 μM DIC, ± s.e.
[8] = 2:1 CH2Cl2:MeOH, Table 4.3, read-out: Solubility in 2:1 CH2Cl2:MeOH
[9] = CH2Cl2:MeOH 2:1, Table 1, read-out: CH2Cl2:MeOH 2:1 solubility
[10] = CH2Cl2, Table 1, read-out: CH2Cl2 solubility
[11] = DMSO, Table 1, read-out: DMSO solubility
[12] = Homo sapiens, MCF7, Table 1, read-out: MCF7 IC50
[13] = Homo sapiens, MCF7, Table 4.2, no DIC, ± s.e., read-out: IC50 vs. MCF-7 cells
[14] = Homo sapiens, MCF7, read-out: IC50 vs. MCF-7 cells +25 μM DIC, Table 4.2, +25 μM DIC, ± s.e.

solubility at 30 min [1]	Solubility in CH2Cl2 ([2]; CH2Cl2, Table 4.3)	Solubility in DMSO ([2]; DMSO, Table 4.3)	solubility [2, 8]	solubility [2, 9]	solubility [2, 10]	solubility [2, 11]	solubility [3]	NQO1 Initial Velocity @ 1 μM (NQO1)	Structure (SMILES)	IC50 (MCF-7 cells; [5])	IC50 (MCF-7 cells; [6])	IC50 (MCF-7 cells; [7])	Fold protection by DIC (MCF-7 cells; Table 4.1)	IC50 (MCF-7 cells; [12])	Fold Protection of MCF7 cells w/ 25 μM dicoumarol (MCF-7 cells; Table 1)	IC50 (MCF-7 cells; [13])	IC50 (MCF-7 cells; [14])	Fold protection by DIC (MCF-7 cells; Table 4.2)	also measured
0.105 mM (≈ 31.3 µg/mL)	11 mM (≈ 3280 µg/mL)	16 mM (≈ 4770 µg/mL)	35 mM (≈ 10400 µg/mL)	35 mM (≈ 10400 µg/mL)	11 mM (≈ 3280 µg/mL)	16 mM (≈ 4770 µg/mL)	3.9 mM (≈ 1160 µg/mL)		CCc1cc(=O)[nH]c2c1C(=O)c1c(C)cc(=O)n(C)c1C2=O [Compound 4-11]	0.55 ± 0.06 µM	> 0.5 µM	4.9 ± 0.8 µM	8.9						
0.059 mM (≈ 18.4 µg/mL)	6.1 mM (≈ 1910 µg/mL)	10 mM (≈ 3120 µg/mL)	18 mM (≈ 5620 µg/mL)	18 mM (≈ 5620 µg/mL)	6.1 mM (≈ 1910 µg/mL)	10 mM (≈ 3120 µg/mL)	4.6 mM (≈ 1440 µg/mL)	600 ± 100	CCCc1cc(=O)n(C)c2c1C(=O)c1c(C)cc(=O)[nH]c1C2=O [Compound 4-9]	0.9 ± 0.25 µM	> 0.5 µM	2.6 ± 0.6 µM	2.8	0.93 µM	2.8				
									CC1=C(N2CC2)C(=O)C(CO)=C(N2CC2)C1=O [RH1, reference compound]						0.85				IC50 (MCF-7 cells; Table 1, read-out: MCF7 IC50): 0.21 µM
< 0.005 mM									CCCCCCCn1c2c(c(C)cc1=O)C(=O)c1c(C)cc(=O)[nH]c1C2=O [Compound 4-25]		< 0.5 µM					0.42 ± 0.11 µM	4.5 ± 0.4 µM	11	solubility [4]: 3 mM (≈ 1110 µg/mL); solubility ([2]; CH2Cl2, Table 4.3, read-out: Solubility in CH2Cl2): 30 mM (≈ 11100 µg/mL); solubility ([2]; DMSO, Table 4.3, read-out: Solubility in DMSO): 13 mM (≈ 4790 µg/mL)
< 0.005 mM	35 mM (≈ 13400 µg/mL)	7.1 mM (≈ 2720 µg/mL)	64 mM (≈ 24500 µg/mL)	64 mM (≈ 24500 µg/mL)	35 mM (≈ 13400 µg/mL)	7.1 mM (≈ 2720 µg/mL)	17 mM (≈ 6500 µg/mL)	75 ± 4	CCCCn1c2c(c(CCC)cc1=O)C(=O)c1c(CCC)cc(=O)[nH]c1C2=O [Compound 4-28]		> 0.5 µM			36 µM	0.9	36 ± 11 µM	31 ± 10 µM	0.9	
0.035 mM (≈ 10.9 µg/mL)	2.0 mM (≈ 625 µg/mL)	4.2 mM (≈ 1310 µg/mL)	10 mM (≈ 3120 µg/mL)	10 mM (≈ 3120 µg/mL)	2 mM (≈ 625 µg/mL)	4.2 mM (≈ 1310 µg/mL)		250*	CCCc1cc(=O)[nH]c2c1C(=O)c1c(C)cc(=O)n(C)c1C2=O [Compound 4-12]	3.4 ± 0.6 µM	> 0.5 µM	5.3 ± 1.2 µM	1.6	3.4 µM	1.6				
< 0.005 mM	17 mM (≈ 6020 µg/mL)	10 mM (≈ 3540 µg/mL)	49 mM (≈ 17400 µg/mL)	49 mM (≈ 17400 µg/mL)	17 mM (≈ 6020 µg/mL)	10 mM (≈ 3540 µg/mL)	12 mM (≈ 4250 µg/mL)	350 ± 10	CCCCn1c2c(c(C)cc1=O)C(=O)c1c(CCC)cc(=O)[nH]c1C2=O [Compound 4-27]		> 0.5 µM			6.3 µM	1.1	6.3 ± 1.1 µM	6.8 ± 1.6 µM	1.1	
